In patent US9241923B2, “Methods for promoting neuronal development and/or health” (Mead Johnson Nutrition Company, priority 2013, dated 2016):

Test system: human adipose derived stem cells (hADSCs)
Experiment: neurogenesis / neuronal differentiation of hADSCs judged by neuronal morphology under phase contrast microscopy
Type: cell-based
Method: hADSCs were purchased from Invitrogen, also known as Life Technologies, of Carlsbad, Calif., U.S.A., and were cultured as near confluent monolayers in 100 mm culture plates within a maintenance media consisting of Complete MesenPro RS medium with growth supplement and L-glutamine obtained from Invitrogen®. The process of culturing, passage, and seeding the hADSCs is described below.
The subculture of hADSCs was performed when cell culture reached confluence. To passage hADSCs, the following procedure is used: i) aspirate the Complete MesenPRO RS medium from the cells; ii) rinse the surface area of the cell layer with Dulbecco's phosphate buffered saline (DBPS) buffer by adding the DPBS to the side of the vessel opposite the attached cell layer and rocking the vessel back and forth several times; iii) remove the DPBS by aspiration and discard; iv) detach the cells by adding a sufficient volume of pre-warmed trypsin-EDTA solution without phenol red to cover the cell layer; v) incubate at 37° C. for approximately 7 minutes; vi) observe the cells under a microscope to determine if additional incubation is needed; vii) add 3 mL of the maintenance media to the plate, mix the cell suspension, add the suspension to a 15 mL centrifuge tube and centrifuge at 210 g for 5 minutes; viii) determine the total number of cells and percent viability using a hemacytometer; ix) add Complete MesenPRO RS medium to each vessel so that the final culture volume is 0.2 mL-0.5 mL per cm^2; x) seed the cells by adding the appropriate volume of cells to each vessel and incubate at 37° C., 5% CO2 and 90% humidity; and xi) three or four days after seeding, completely remove the medium and replace with an equal volume of Complete MesenPRO RS medium.
Before seeding the passaged hADSCs on fresh culture plates, the surfaces of the culture ware are washed with sterile DPBS solution three times, followed by multiple rinses with sterile water. The first layer of coating is poly-L-ornithine. The coating is prepared by adding about 15 to about 20 µg/mL of poly-L-ornithine and incubating at 37° C. for one hour. The plate is washed three times with DPBS, 15 minutes per wash. The second layer of coating is bovine plasma fibronectin. The fibronectin is diluted in DPBS from stock to 1:1000 and 500 μL is added to each well. The plate is left at room temperature for one hour. One final wash with 500 μL per well of DPBS is performed and the plate is used immediately.
The cells were then subjected to removal and reseeded at a density of 2×10^4 cells/ml (1×10^4 cells/well) onto 24-well culture plates that contained a poly-L-ornithine and bovine plasma fibronectin coating.
Three days after seeding and priming; the culture medium was changed into neuronal differentiation medium. […]

SMILES | neurite outgrowth compared with DHA (ALA 5 μg/ml vs DHA 20 μM, FIG. 2C vs FIG. 2B) | neurogenesis (neuronal morphology displayed by the hADSCs) (ALA at 5 μg/ml, phase contrast microscopy at 3 hours and 24 hours, vs negative control (no treatment), FIG. 2C) | cell death (cellular toxicity) as compared to DHA (wells treated with ALA 5 μg/ml vs DHA 20 μM, hADSCs) | neuronal morphology of hADSCs (DHA at 20 μM (positive control), vs negative control, FIG. 2B)
O=C(O)CCCCC1CCSS1 (stereo not drawn) [ALA, Alpha-lipoic acid] | robust ability to promote neurogenesis in terms of neurite outgrowth | strong effect to enhance neurogenesis | less cell death overall | –
CC/C=C\C/C=C\C/C=C\C/C=C\C/C=C\C/C=C\CCC(=O)O [DHA, docosahexanoic acid, reference compound] | – | – | – | enhanced neuronal morphology of hADSCs
